Values of other authors as cited in patent US20260284237A1, “RADIOLABELED FAPI COMPLEX, AND PREPARATION METHOD THEREFOR AND USE THEREOF” (BEIJING NORMAL UNIVERSITY, priority 2023, published 2026).

Assays:
[1] = background statement
FAP = conditions: background statement

N#C[C@@H]1CC(F)(F)CN1C(=O)CNC(=O)c1ccnc2ccc(OCCCN3CCN(C(=O)CN4CCN(CC(=O)O)CCN(CC(=O)O)CCN(CC(=O)O)CC4)CC3)cc12 [FAPI-04]
tumor uptake as radiotherapeutic drug [1]: relatively low tumor uptake | affinity and specificity toward the FAP (FAP): favorable affinity and specificity toward the FAP
